Article PMC11544713, “The Application of Untargeted Metabolomic Approaches for the Search of Common Bioavailable Metabolites in Human Plasma Samples from Lippia citriodora and Olea europaea Extracts” (Journal of Agricultural and Food Chemistry, 2024)

Assays:
[1] = Acute intervention: nutrikinetics of plasma metabolites after ingestion of L. citriodora extract (untargeted HPLC-ESI-QTOF-MS)
Description: (§1) A total of 25 healthy individuals participated, with an average age of 27 ± 9 years and a mean body mass index (BMI) of 23 ± 3 kg/m^2. None of the participants were taking any medications or nutritional supplements nor did they have any chronic diseases or gastrointestinal issues. The sample size was established based on findings from previous bioavailability research.[14] All participants provided informed consent before participating in the study.
(§2) The intervention study was carried out at Miguel Hernández University. Following an overnight fast, the volunteers were categorized into the subsequent groups: a subgroup to evaluate the LC leaf extract (n = 8), another for the OE leaf extract (n = 8), and the placebo subgroup (n = 9). This was a double-blind study, in which sample collection and treatment were carried out uniformly across all three subgroups.
(§3) Water was provided ad libitum. Prior to the ingestion of the capsule, a nurse inserted a cannula into the ulnar vein of each volunteer’s nondominant arm, and blood samples were drawn into EDTA-coated tubes at baseline (t = 0). Blood samples were then collected at 0.5, 1, 2, 4, 6, 8, and 10 h after the consumption of the 500 mg capsule. Plasma was separated through centrifugation (10 min at 3000 rpm and 4 °C) and stored at −80 °C until further analysis.
(§4) Plasma samples were initially treated using a mixture of methanol and ethanol (50:50; v:v) to remove proteins, following previously reported protocols.[19] During the sample treatment, pooled quality controls (pooled-QC) were prepared by combining equal aliquots from each sample. These QC samples were processed by using the same protocols as the experimental biological samples.
(§5) A reversed-phase analytical C18 column (Agilent Zorbax Eclipse Plus, 1.8 μm, 4.6 × 150 mm^2) with a protective cartridge with the same packing was used. MS data were acquired in negative ionization mode, operating in full scan across a mass-to-charge ratio (m/z) range of 50–1700. The analytical method used was adapted from that described by Villegas-Aguilar et al.[19]
(§6) Metabolite nutrikinetics were studied using PKSolver, an add-in program for pharmacokinetic data analysis in Microsoft Excel. The time to reach the maximum concentration (observed Tmax) was calculated for each significant metabolite. As an untargeted metabolomic approach was used to detect the circulating metabolites, these were not quantified. Therefore, the maximum concentration (Cmax) and area under the curve (AUC) parameters were calculated in a relative way by using the deconvoluted chromatographic areas. […] Statistical differences were determined by unpaired t tests. All p values less than 0.05 were considered statistically significant.

[2] = Acute intervention: nutrikinetics of plasma metabolites after ingestion of O. europaea extract (untargeted HPLC-ESI-QTOF-MS); settings: in vivo
Description: as §1, §2, §3, §4, §5, §6

[3] = 0.5 h after L. citriodora extract
[4] = 1 h after L. citriodora extract
[5] = 2 h after L. citriodora extract
[6] = 4 h after L. citriodora extract
[7] = 6 h after L. citriodora extract
[8] = 8 h after L. citriodora extract
[9] = 10 h after L. citriodora extract
[10] = human plasma, 500 mg capsule of L. citriodora (LC) extract, oral, mean ± SD

| Molecule | AUC: area under the zero-moment curve ([1]; human, in vivo, po, 500 mg) | Cmax: relative maximum plasma level ([1]; human, in vivo, po, 500 mg) | observed Tmax: time required to reach Cmax ([1]; human, in vivo, po, 500 mg) [h] | mean chromatographic area in plasma, T0.5 ([1]; in vivo) | mean chromatographic area in plasma, T1 ([1]; in vivo) | mean chromatographic area in plasma, T2 ([1]; in vivo) | mean chromatographic area in plasma, T4 ([1]; in vivo) | mean chromatographic area in plasma, T6 ([1]; in vivo) | mean chromatographic area in plasma, T8 ([1]; in vivo) | mean chromatographic area in plasma, T10 ([1]; in vivo) | mean chromatographic area in plasma, T0.5 [1, 3] | mean chromatographic area in plasma, T1 [1, 4] | mean chromatographic area in plasma, T2 [1, 5] | mean chromatographic area in plasma, T4 [1, 6] | mean chromatographic area in plasma, T6 [1, 7] | mean chromatographic area in plasma, T8 [1, 8] | mean chromatographic area in plasma, T10 [1, 9] | AUC: area under the zero-moment curve [1, 10] | Cmax: relative maximum plasma level [1, 10] | observed Tmax: time required to reach Cmax [1, 10] [h] | other results |
| --- | --- | --- | --- | --- | --- | --- | --- | --- | --- | --- | --- | --- | --- | --- | --- | --- | --- | --- | --- | --- | --- |
| OCCc1ccc(O)c(O)c1 [hydroxytyrosol] |  |  |  |  |  |  |  |  |  |  |  |  |  |  |  |  |  |  |  |  | AUC of the sulfated form compared to the glucuronidated form ([1]; human, in vivo): about 10 times; detection in plasma samples [2]: detected in plasma samples |
| C[C@@H]1O[C@@H](O[C@@H]2[C@@H](O)[C@H](OCCc3ccc(O)c(O)c3)O[C@H](CO)[C@H]2OC(=O)/C=C/c2ccc(O)c(O)c2)[C@H](O)[C@H](O)[C@H]1O [verbascoside] |  |  |  |  |  |  |  |  |  |  |  |  |  |  |  |  |  |  |  |  | detection in plasma samples (native form or phase II metabolites) ([1]; in vivo): has not been detected in plasma samples |
| gardoside [gardoside isomer 1] | 608 ± 375 relative chromatographic area/h | 211 ± 72 relative chromatographic area | 2 ± 0 | 0 | 85 | 211 | 86 | 27 | 0 | 0 |  |  |  |  |  |  |  |  |  |  |  |
| COc1cc(CCCO)ccc1OC1OC(CO)C(O)C(O)C1O (single isomer, unassigned; isomer 2) [dihydroconiferin isomer 2, dihydroconiferin] |  |  |  |  |  |  |  |  |  |  | 34 | 136 | 83 | 0 | 0 | 0 | 0 | 244 ± 102 relative chromatographic area/h | 136 ± 28 relative chromatographic area | 1 ± 0 |  |
| O=C(O)CCCCCCCCC(=O)O [sebacic acid isomer, sebacic acid] | 141 ± 86 relative chromatographic area/h | 119 ± 27 relative chromatographic area | 1.2 ± 0.4 | 22 | 102 | 35 | 0 | 0 | 0 | 0 |  |  |  |  |  |  |  |  |  |  |  |
| COc1cc(CCCO)ccc1OC1OC(CO)C(O)C(O)C1O (single isomer, unassigned; isomer 1) [dihydroconiferin isomer 1, dihydroconiferin] |  |  |  |  |  |  |  |  |  |  | 44 | 137 | 0 | 0 | 0 | 0 | 0 | 126 ± 28 relative chromatographic area/h | 139 ± 19 relative chromatographic area | 0.9 ± 0.2 |  |
